Test results from US4409210A, “Antibiotic compound” (priority 1982, dated 1983).
Converted amounts (≈) assume the structure as drawn. Read-outs that look alike come from different tables or passages of the source. *1 amine or outer side, *2 acyl side, *3 side chain or, on linkers, in order; H or OH if unused. Where a SMILES comes first, the peptide text is derived from it. Bridges are numbered along the chain shown (N, C = ends). [ ]: non-standard residue; d: D form. ξ: configuration not given here. X2 = CCCCCCCCCCCC(CC(=O)[*:1])O[*:2]; ξAsp(3ξ-OH) = NC(C(=O)O)C(O)C(=O)O; X1 = O=C(C1C(O)CCN1[*:1])[*:2]

What was measured:
[1] = tested on: Streptococcus pneumoniae A9585; experiment: MIC, serial two-fold dilution method (aerobic); format: cell-based
[2] = tested on: Haemophilus influenzae A9729; experiment: MIC, serial two-fold dilution method (aerobic); format: cell-based
[3] = tested on: E. coli NIHJ; experiment: Antibiotic sensitivity, paper disc-agar diffusion method; format: cell-based; set-up: key: S (sensitive); R (resistant); I (intermediate); conditions: nutrient agar, 2 day's incubation at 28° C., Difco discs, amount/disc per antibiotic
[4] = tested on: Haemophilus influenzae A22481; experiment: MIC, serial two-fold dilution method (aerobic); format: cell-based
[5] = tested on: Streptococcus pneumoniae A15069; experiment: MIC, serial two-fold dilution method (aerobic); format: cell-based
[6] = tested on: Streptococcus pyogenes Dick; experiment: MIC, serial two-fold dilution method (aerobic); format: cell-based; conditions: for MIC: read-out: minimum inhibitory concentration (MIC)
[7] = tested on: Streptococcus pyogenes A9604; experiment: MIC, serial two-fold dilution method (aerobic); format: cell-based
[8] = tested on: Streptococcus pyogenes S-23; experiment: MIC, serial two-fold dilution method (aerobic); format: cell-based
[9] = tested on: Neisseria gonorrhoeae A15112; experiment: MIC, serial two-fold dilution method (aerobic); format: cell-based
[10] = tested on: gram-positive rods and cocci (Clostridium, Peptostreptococcus, Propionibacterium acnes); format: cell-based; conditions: various species of Clostridium and Peptostreptococcus and strains of Propionibacterium acnes
[11] = tested on: S. aureus Smith; experiment: Experimental infection of mice, PD50; format: in vivo; conditions: observed 5 days
[12] = tested on: S. aureus BX-1633; format: in vivo, mice; conditions: Exp. Run No. C-1319, observed 5 days
[13] = format: in vivo, mice; conditions: acute toxicity
Description: The acute toxicity of Bu-2517 was determined by intravenous and intramuscular routes. No death occurred up to a dose of 400 mg/kg (iv) or 1600 mg/kg (im).

[14] = tested on: Veillonella species; experiment: MIC summary, Veillonella; format: cell-based; conditions: gram-negative cocci
[15] = tested on: C. perfringens A9635; format: in vivo, mice; conditions: observed 5 days
[16] = tested on: S. pyogenes A20201; experiment: Experimental infection of mice, PD50; format: in vivo; conditions: observed 5 days
[17] = Streptococcus pyogenes Dick, GC medium, inoculum 10^6 CFU/ml
[18] = Streptococcus pneumoniae A9585, GC medium, inoculum 10^6 CFU/ml
[19] = Haemophilus influenzae A9729, GC medium, inoculum 10^6 CFU/ml
[20] = Exp. Run No. C-1247, 1.3 × 10^6 cell/mouse, 350 × LD50, im just before challenge
[21] = Exp. Run No. C-1312, 1.3 × 10^6 cell/mouse, 200 × LD50, im just before challenge
[22] = Haemophilus influenzae A22481, GC medium, inoculum 10^6 CFU/ml
[23] = Streptococcus pneumoniae A15069, GC medium, inoculum 10^6 CFU/ml
[24] = Streptococcus pyogenes A9604, GC medium, inoculum 10^6 CFU/ml
[25] = Streptococcus pyogenes S-23, GC medium, inoculum 10^6 CFU/ml
[26] = Neisseria gonorrhoeae A15112, GC medium, inoculum 10^6 CFU/ml
[27] = Exp. Run No. C-1318, 2.5 × 10^7 cell/mouse, 11 × LD50, im just before challenge
[28] = Exp. Run No. C-1313, 1.3 × 10^2 cell/mouse, 60 × LD50, im just before challenge

Compound	Sensitivity E. coli NIHJ [3]	minimum inhibitory concentration (MIC) [1, 18] [µg/mL]	minimum inhibitory concentration (MIC) [2, 19] [µg/mL]	PD50 (mg/kg, im) [11, 20] [mg/kg]	PD50 (mg/kg, im) [11, 21] [mg/kg]	PD50 (mg/kg, im) [12] [mg/kg]	minimum inhibitory concentration (MIC) [4, 22] [µg/mL]	minimum inhibitory concentration (MIC) [5, 23] [µg/mL]	minimum inhibitory concentration (MIC) [6, 17] [µg/mL]	minimum inhibitory concentration (MIC) [7, 24] [µg/mL]	minimum inhibitory concentration (MIC) [8, 25] [µg/mL]	minimum inhibitory concentration (MIC) [9, 26] [µg/mL]	PD50 (mg/kg, im) [15, 27] [mg/kg]	PD50 (mg/kg, im) [16, 28] [mg/kg]	further results
CC1(C)S[C@@H]2[C@H](NC(=O)[C@H](N)c3ccccc3)C(=O)N2[C@H]1C(=O)O [Ampicillin]	S	–	–	–	–	–	–	–	–	–	–	–	–	–	MIC ([1]; Streptococcus pneumoniae A9585, GC medium, inoculum 10^6 CFU/ml, read-out: minimum inhibitory concentration (MIC)): 0.025 µg/mL (≈ 0.0715 µM); MIC ([2]; Haemophilus influenzae A9729, GC medium, inoculum 10^6 CFU/ml, read-out: minimum inhibitory concentration (MIC)): 0.8 µg/mL (≈ 2.29 µM); MIC ([4]; Haemophilus influenzae A22481, GC medium, inoculum 10^6 CFU/ml, read-out: minimum inhibitory concentration (MIC)): 50 µg/mL (≈ 143 µM); MIC ([5]; Streptococcus pneumoniae A15069, GC medium, inoculum 10^6 CFU/ml, read-out: minimum inhibitory concentration (MIC)): 0.025 µg/mL (≈ 0.0715 µM); MIC [6, 17]: 0.013 µg/mL (≈ 0.0372 µM); MIC ([7]; Streptococcus pyogenes A9604, GC medium, inoculum 10^6 CFU/ml, read-out: minimum inhibitory concentration (MIC)): 0.013 µg/mL (≈ 0.0372 µM); MIC ([8]; S23, Streptococcus pyogenes S-23, GC medium, inoculum 10^6 CFU/ml, read-out: minimum inhibitory concentration (MIC)): 0.013 µg/mL (≈ 0.0372 µM); MIC ([9]; Neisseria gonorrhoeae A15112, GC medium, inoculum 10^6 CFU/ml, read-out: minimum inhibitory concentration (MIC)): 0.4 µg/mL (≈ 1.14 µM)
CCCCCCCCCCCC1CC(=O)N2CCCC2C(=O)NC(CO)C(=O)N2CCCC2C(=O)NC(CCCNC(=N)N)C(=O)NC(C(O)C(=O)O)C(=O)NC(CO)C(=O)N2CCC(O)C2C(=O)NC(C(O)C(=O)O)C(=O)O1 (stereo not drawn) [Bu-2517] (PSPR[ξAsp(3ξ-OH)]S[X1][ξAsp(3ξ-OH)]; linker N-C via X2; configuration not given here)	–	1.6 (≈ 1.42 µM)	> 100	3.3	3.3	3.6	> 100	1.6 (≈ 1.42 µM)	1.6 (≈ 1.42 µM)	1.6 (≈ 1.42 µM)	1.6 (≈ 1.42 µM)	> 100	6.8	1.5	pH range in which aqueous solution forms a precipitate: 2.4-4.2; inhibition of anaerobic gram-positive rods and cocci tested [10]: inhibited all; dose up to which no death occurred ([13]; im): 1600 mg/kg; intravenous dose at which mice died ([13]; intravenous): 800 mg/kg; dose up to which no death occurred ([13]; iv): 400 mg/kg; intravenous LD50 ([13]; mice, calculated): 560 mg/kg; inhibition of two strains of Veillonella species [14]: inhibited at low concentration; PD50 (mg/kg, im) ([15]; Exp. Run No. C-1175, 2.5 × 10^7 cell/mouse, 18 × LD50, im just before challenge): 5.5 mg/kg; PD50 (mg/kg, im) ([16]; Exp. Run No. C-1174, 1.3 × 10^2 cell/mouse, 30 × LD50, im just before challenge): 1.0 mg/kg
O=C(N[C@H](CO)[C@H](O)c1ccc([N+](=O)[O-])cc1)C(Cl)Cl [Chloramphenicol]	S	–	–	–	–	–	–	–	–	–	–	–	–	–	–
CC[C@H]1OC(=O)[C@H](C)[C@@H](O[C@H]2C[C@@](C)(OC)[C@@H](O)[C@H](C)O2)[C@H](C)[C@@H](O[C@@H]2O[C@H](C)C[C@H](N(C)C)[C@H]2O)[C@](C)(O)C[C@@H](C)C(=O)[C@H](C)[C@@H](O)[C@]1(C)O [Erythromycin]	R	–	–	–	–	–	–	–	–	–	–	–	–	–	–
CN[C@H](CC(C)C)C(=O)N[C@H]1C(=O)N[C@@H](CC(N)=O)C(=O)N[C@H]2C(=O)N[C@H]3C(=O)N[C@H](C(=O)N[C@H](C(=O)O)c4cc(O)cc(O)c4-c4cc3ccc4O)[C@H](O)c3ccc(c(Cl)c3)Oc3cc2cc(c3O[C@@H]2O[C@H](CO)[C@@H](O)[C@H](O)[C@H]2O[C@H]2C[C@](C)(N)[C@H](O)[C@H](C)O2)Oc2ccc(cc2Cl)[C@H]1O [Vancomycin]	–	–	–	–	–	–	–	–	–	–	–	–	–	–	MIC ([1]; Streptococcus pneumoniae, A9585, read-out: minimum inhibitory concentration (MIC)): 0.4 µg/mL (≈ 0.276 µM); MIC ([2]; Haemophilus influenzae, A9729, read-out: minimum inhibitory concentration (MIC)): > 100 µg/mL; MIC ([4]; Haemophilus influenzae, A22481, read-out: minimum inhibitory concentration (MIC)): > 100 µg/mL; MIC ([5]; Streptococcus pneumoniae, A15069, read-out: minimum inhibitory concentration (MIC)): 0.4 µg/mL (≈ 0.276 µM); MIC ([6]; Streptococcus pyogenes): 0.8 µg/mL (≈ 0.552 µM); MIC ([7]; Streptococcus pyogenes, A9604, read-out: minimum inhibitory concentration (MIC)): 0.4 µg/mL (≈ 0.276 µM); MIC ([8]; Streptococcus pyogenes, S23, read-out: minimum inhibitory concentration (MIC)): 0.8 µg/mL (≈ 0.552 µM); MIC ([9]; Neisseria gonorrhoeae, A15112, read-out: minimum inhibitory concentration (MIC)): > 100 µg/mL
Amphomycin	–	25	> 100	9.0	3.3	4.4	> 100	25	12.5	12.5	12.5	> 100	7.4	3.5	–
